Results from patent US20090099195A1 (ASTRAZENECA AB, priority 2007, published 2009).

Target: T1, hP2X3 (human Purinergic P2X receptors subtype 3), clone B (Homo sapiens, UniProt P56373)
T1 sequence (P56373 1-397): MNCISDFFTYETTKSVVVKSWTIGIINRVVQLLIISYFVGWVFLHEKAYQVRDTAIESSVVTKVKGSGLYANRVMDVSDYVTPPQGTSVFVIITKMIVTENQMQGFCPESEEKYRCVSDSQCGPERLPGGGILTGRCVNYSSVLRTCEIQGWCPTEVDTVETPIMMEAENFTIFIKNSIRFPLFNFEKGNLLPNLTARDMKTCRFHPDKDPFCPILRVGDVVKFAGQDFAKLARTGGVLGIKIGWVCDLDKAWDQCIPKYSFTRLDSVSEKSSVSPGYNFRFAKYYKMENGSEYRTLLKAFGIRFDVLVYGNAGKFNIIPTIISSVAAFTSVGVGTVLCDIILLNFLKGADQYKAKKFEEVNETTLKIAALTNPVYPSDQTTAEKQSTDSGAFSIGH
Test: hP2X3 FLIPR calcium (Fluo-4) antagonist assay, clone B
Details: Human P2X3 FLIPR Clone B IC50 (nM), RLE cells expressing hP2X3 clone B (NM_002559); agonist 500 nM α,β-methylene-ATP

Row | Compound | IC50 [nM]
1 | CC(=O)N1CCN(c2nc(NC(C)c3ccc(C(C)C)cc3)c3c(n2)C(=O)N(C(C)C)C3)CC1 (centres unmarked) [Example 40, 2-(4-acetylpiperazin-1-yl)-6-isopropyl-4-{[1-(4-isopropylphenyl)ethyl]amino}-5,6-dihydro-7H-pyrrolo[3,4-d]pyrimidin-7-one] | 310
2 | CCOc1ccc(CN(CC2CC2)c2nc(N3CCN(C(C)=O)CC3)nc3c2CN(C(C)C)C3=O)cc1 [Example 162, 2-(4-acetylpiperazin-1-yl)-4-((cyclopropylmethyl)(4-ethoxybenzyl)amino)-6-isopropyl-5H-pyrrolo[3,4-d]pyrimidin-7(6H)-one] | 950
3 | CC(=O)N1CCN(c2nc3c(c(N(Cc4ccc(Cl)cc4)CC4CC4)n2)CN(C(C)C)C3=O)CC1 [Example 59, 2-(4-acetylpiperazin-1-yl)-4-[(4-chlorobenzyl)(cyclopropylmethyl)amino]-6-isopropyl-5,6-dihydro-7H-pyrrolo[3,4-d]pyrimidin-7-one] | 220
4 | CC(C)N1Cc2c(NC3c4cccnc4CCc4c(F)cccc43)nc(NCCN(C)C)nc2C1=O (centres unmarked) [Example 21, 2-{[2-(dimethylamino)ethyl]amino}-4-[(9-fluoro-10,11-dihydro-5H-benzo[4,5]cyclohepta[1,2-b]pyridin-5-yl)amino]-6-isopropyl-5,6-dihydro-7H-pyrrolo[3,4-d]pyrimidin-7-one] | 140
5 | CC(=O)N1CCN(c2nc3c(c(N4CCCC4c4cccc(C)c4)n2)CN(C(C)C)C3=O)CC1 (centres unmarked) [Example 269, 4-(4-acetylpiperazin-1-yl)-2-[2-(3-methylphenyl)pyrrolidin-1-yl]-8-propan-2-yl-3,5,8-triazabicyclo[4.3.0]nona-2,4,10-trien-7-one] | 740
6 | COCCNc1nc2c(c(N3CCCC3Cc3ccc(Cl)cc3)n1)CN(C(C)C)C2=O (centres unmarked) [Example 44, 4-[2-(4-chlorobenzyl)pyrrolidin-1-yl]-6-isopropyl-2-[(2-methoxyethyl)amino]-5,6-dihydro-7H-pyrrolo[3,4-d]pyrimidin-7-one] | 9600
7 | CC(C)N1Cc2c(NC(c3ccc(F)cc3)c3ccc(F)cc3)nc(N3CC4CC3CN4C)nc2C1=O (centres unmarked) [Example 23, 4-{[bis(4-fluorophenyl)methyl]amino}-6-isopropyl-2-(5-methyl-2,5-diazabicyclo[2.2.1]hept-2-yl)-5,6-dihydro-7H-pyrrolo[3,4-d]pyrimidin-7-one] | 210
8 | CC(=O)N1CCN(c2nc3c(c(N4CCC[C@@H]4C(=O)NC4CCCCC4)n2)CN(C(C)C)C3=O)CC1 [Example 302, (2R)-1-[4-(4-acetylpiperazin-1-yl)-7-oxo-8-propan-2-yl-3,5,8-triazabicyclo[4.3.0]nona-1,3,5-trien-2-yl]-N-cyclohexyl-pyrrolidine-2-carboxamide] | 3100
9 | CC(C)N1Cc2c(NC(c3ccc(F)cc3)c3ccc(F)cc3)nc(N(C)CCN(C)C)nc2C1=O [Example 24, 4-{[bis(4-fluorophenyl)methyl]amino}-2-[[2-(dimethylamino)ethyl](methyl)amino]-6-isopropyl-5,6-dihydro-7H-pyrrolo[3,4-d]pyrimidin-7-one] | 190
10 | CC(C)N1Cc2c(nc(NCCN(C)C)nc2N2CCCC2Cc2ccc(Cl)cc2)C1=O (centres unmarked) [Example 57, 4-[2-(4-chlorobenzyl)pyrrolidin-1-yl]-2-{[2-(dimethylamino)ethyl]amino}-6-isopropyl-5,6-dihydro-7H-pyrrolo[3,4-d]pyrimidin-7-one] | 8500
11 | CC(=O)N1CCN(c2nc(N[C@@H]3CCC[C@H]3c3ccc(Cl)cc3)c3c(n2)C(=O)N(C(C)C)C3)CC1 (racemic) [Example 33, 2-(4-acetylpiperazin-1-yl)-4-{[trans-2-(4-chlorophenyl)cyclopentyl]amino}-6-isopropyl-5,6-dihydro-7H-pyrrolo[3,4-d]pyrimidin-7-one] | 580
12 | CCC(C)N1Cc2c(NC(C)(C)Cc3ccc(F)cc3)nc(N3CCN(C(C)=O)CC3)nc2C1=O (centres unmarked) [Example 312, 2-(4-acetylpiperazin-1-yl)-6-sec-butyl-4-(1-(4-fluorophenyl)-2-methylpropan-2-ylamino)-5H-pyrrolo[3,4-d]pyrimidin-7(6H)-one] | 160
13 | CC(=O)N1CCN(c2nc(N[C@H](C)c3ccc4c(c3)CCC(C)(C)O4)c3c(n2)C(=O)N(C(C)C)C3)CC1 [Example 169, (R)-2-(4-acetylpiperazin-1-yl)-4-(1-(2,2-dimethylchroman-6-yl)ethylamino)-6-isopropyl-5H-pyrrolo[3,4-d]pyrimidin-7(6H)-one] | 51
14 | CC(=O)N1CCN(c2nc3c(c(N(Cc4ccc(F)cc4)C4CCCC4)n2)CN(C(C)C)C3=O)CC1 [Example 4, 2-(4-acetylpiperazin-1-yl)-4-[cyclopentyl(4-fluorobenzyl)amino]-6-isopropyl-5,6-dihydro-7H-pyrrolo[3,4-d]pyrimidin-7-one] | 800
15 | CC(=O)N1CCN(c2nc3c(c(N(Cc4ccccc4)CC4CCCO4)n2)CN(C(C)C)C3=O)CC1 (centres unmarked) [Example 3, 2-(4-acetylpiperazin-1-yl)-4-[benzyl(tetrahydrofuran-2-ylmethyl)amino]-6-isopropyl-5,6-dihydro-7H-pyrrolo[3,4-d]pyrimidin-7-one] | 4600

The remaining lines, values ahead:

Row | IC50 [nM] | Compound
16 | 44 | CC(=O)N1CCN(c2nc(N[C@H](C)c3ccc4c(c3)CCC4)c3c(n2)C(=O)N(C(C)C)C3)CC1 [Example 172, (R)-2-(4-acetylpiperazin-1-yl)-4-(1-(2,3-dihydro-1H-inden-5-yl)ethylamino)-6-isopropyl-5H-pyrrolo[3,4-d]pyrimidin-7(6H)-one]
17 | 7800 | CC(C)N1Cc2c(NCc3cnc4ccccc4c3)nc(N3CCC(N(C)C)CC3)nc2C1=O [Example 218]
18 | 190 | CC(C)C(=O)N1CCN(c2nc(NC(c3ccccc3)c3ccccc3)c3c(n2)C(=O)N(C(C)C)C3)CC1 [Example 80, 4-(Benzhydryl-amino)-2-(4-isobutyryl-piperazin-1-yl)-6-isopropyl-5,6-dihydro-pyrrolo[3,4-d]pyrimidin-7-one]
19 | 650 | CC(=O)N1CCN(c2nc(NCc3ccc(C(C)C)cc3)c3c(n2)C(=O)N(C(C)C)C3)CC1 [Example 43, 2-(4-acetylpiperazin-1-yl)-6-isopropyl-4-[(4-isopropylbenzyl)amino]-5,6-dihydro-7H-pyrrolo[3,4-d]pyrimidin-7-one]
20 | 9300 | CC(=O)N1CCN(c2nc(Nc3cccc(C(C)C)c3)c3c(n2)C(=O)N(C(C)C)C3)CC1 [Example 105, 2-(4-Acetyl-piperazin-1-yl)-6-isopropyl-4-(3-isopropyl-phenylamino)-5,6-dihydro-pyrrolo[3,4-d]-pyrimidin-7-one]
21 | 200 | CC(=O)N1CCN(c2nc(NCc3cnc4ccccc4c3)c3c(n2)C(=O)N(C(C)C)C3)C(C)C1 (centres unmarked) [Example 352, 2-(4-Acetyl-2-methylpiperazin-1-yl)-6-isopropyl-4-(quinolin-3-ylmethylamino)-5H-pyrrolo[3,4-d]pyrimidin-7(6M)-one]
22 | 6500 | CC(=O)N1CCN(c2nc(N[C@@H](C)c3ccc4ncccc4c3)c3c(n2)C(=O)N(C(C)C)C3)CC1 [Example 244, (S)-2-(4-acetylpiperazin-1-yl)-6-isopropyl-4-(1-(quinolin-6-yl)ethylamino)-5H-pyrrolo[3,4-d]pyrimidin-7(6H)-one]
23 | 2800 | CC(C)N1Cc2c(NCc3cnc4ccccc4c3)nc(N3CCC(C(N)=O)CC3)nc2C1=O [Example 209, 1-(6-isopropyl-7-oxo-4-(quinolin-3-ylmethylamino)-6,7-dihydro-5H-pyrrolo[3,4-d]pyrimidin-2-yl)piperidine-4-carboxamide]
24 | 970 | CC(=O)N1CCN(c2nc(NC(C)C3COc4ccccc4O3)c3c(n2)C(=O)N(C(C)C)C3)CC1 (single isomer, unassigned) [Example 178, 2-(4-acetylpiperazin-1-yl)-4-(1-(2,3-dihydrobenzo[b][1,4]dioxin-2-yl)ethylamino)-6-isopropyl-5H-pyrrolo[3,4-d]pyrimidin-7(6H)-one]
25 | 5900 | CC(C)N1Cc2c(NCc3cnc4ccccc4c3)nc(N(C)CC3CCCO3)nc2C1=O (centres unmarked) [Example 217, 6-isopropyl-2-(methyl-(tetrahydrofuran-2-ylmethyl)amino)-4-(3-quinolylmethylamino)-5H-pyrrolo[3,4-d]pyrimidin-7-one]
26 | 5800 | CC(C)N1Cc2c(NCc3cnc4ccccc4c3)nc(N3CCN(C(=O)N(C)C)CC3)nc2C1=O [Example 221, N,N-dimethyl-4-{6-(1-methylethyl)-7-oxo-4-[(quinolin-3-ylmethyl)amino]-6,7-dihydro-5H-pyrrolo[3,4-d]pyrimidin-2-yl}piperazine-1-carboxamide]
27 | 160 | CC(=O)N1CCN(c2nc(NC(C)c3ccc(CC(C)C)cc3)c3c(n2)C(=O)N(C(C)C)C3)CC1 (centres unmarked) [Example 6, 2-(4-acetylpiperazin-1-yl)-4-{[1-(4-isobutylphenyl)ethyl]amino}-6-isopropyl-5,6-dihydro-7H-pyrrolo[3,4-d]pyrimidin-7-one]
28 | 2900 | CC(=O)N1CCN(c2nc3c(c(N(Cc4cc5ccccc5cn4)CC(F)(F)F)n2)CN(C(C)C)C3=O)CC1 [Example 264, 2-(4-acetylpiperazin-1-yl)-6-isopropyl-4-((isoquinolin-3-ylmethyl)(2,2,2-trifluoroethyl)amino)-5H-pyrrolo[3,4-d]pyrimidin-7(6H)-one]
29 | 3200 | CC(=O)N1CCN(c2nc3c(c(N4CCC4Cc4ccccc4)n2)CN(C(C)C)C3=O)CC1 (centres unmarked) [Example 273, 4-(4-acetylpiperazin-1-yl)-2-(2-benzylazetidin-1-yl)-8-propan-2-yl-3,5,8-triazabicyclo[4.3.0]nona-1,3,5-trien-7-one]
